Data: ChEMBL document CHEMBL1201862, “PubChem BioAssay data set” (2004)
“And” between values parts separate entries of the source, which are not always exact repeats. Identical values can stand only once.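 1) Cells in 96-well plates. 2) Compound, 48 h, 5 concentrations. 3) Linear interpolation between surrounding doses. 4) Unreached endpoint = highest concentration. GI50 marks 50% less growth.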 The source made the active and inactive calls. Rule as the data show it: active = GI50 up to about 1.1 µM and inactive = higher. Residues, ends and D or L forms follow the SMILES beside them.

How the values were obtained:
Assay in all cases: NCI-60 cell line screen, 48 h
M19-MEL = test system: M19-MEL
RXF 631 = test system: RXF 631
SNB-78 = test system: SNB-78
HOP-18 = test system: HOP-18
DMS-273 = test system: DMS-273
DLD-1 = test system: DLD-1
LXFL 529 = test system: LXFL 529
XF498 = test system: XF498
BT-549 = test system: BT-549

SMILES	GI50 (M19-MEL)	GI50 (SNB-78)	GI50 (HOP-18)	GI50 (DMS-273)	GI50 (DLD-1)	GI50 (LXFL 529)	GI50 (BT-549)	other results
Clc1cc(Cl)c2ns[s+]c2c1Cl	> 100 µM (inactive)	0.158 µM (active)	78.3 µM (inactive)	> 100 µM (inactive)	> 100 µM (inactive)	> 100 µM (inactive)		GI50 (XF498): > 100 µM (inactive)
Cc1c(-c2cc(-c3ccccc3)n[nH]c2=O)c2ccccc2n1C	> 100 µM (inactive)	> 100 µM (inactive)	71.3 µM (inactive)	> 100 µM (inactive)	> 100 µM (inactive)	> 100 µM (inactive)		GI50 (XF498): > 100 µM (inactive)
COc1cc(NCc2ccc3n2-c2ccccc2OC3)cc(OC)c1OC							24.2 µM (inactive)	
Oc1ccccc1/C=N/c1nc2cc3sc(/N=C/c4ccccc4O)nc3cc2s1							> 61.8 µM (inactive)	
O=C(CC1S/C(=N\c2ccccc2Cl)NC1=O)Nc1ccc(Cl)cc1 (centres undefined)	> 100 µM (inactive)	> 100 µM (inactive)		> 100 µM (inactive)	> 100 µM (inactive)	> 100 µM (inactive)		
CC1(CNCc2ccccc2)CC(CCc2ccccc2)N(C(=O)c2ccc([N+](=O)[O-])cc2)C1Cc1ccc(O)cc1 (centres undefined)							16.1 µM (inactive)	
COC(=O)C1CC(=O)CCC1c1ccccc1 (centres undefined)	> 100 µM (inactive)	> 100 µM (inactive)	> 100 µM (inactive)	> 100 µM (inactive)	> 100 µM (inactive)	> 100 µM (inactive)		
CC(=O)OCC1=C(C)C(OC(=O)C(OC(C)=O)[C@@H](NC(=O)c2ccccc2)c2ccccc2)CCC1(C)C (some centres undefined)							> 100 µM (inactive)	
COc1ccc(/C=C2\N=C(c3ccccc3)N(Nc3nnc(NN4C(=O)/C(=C/c5ccc(OC)cc5)N=C4c4ccccc4)c4ccccc34)C2=O)cc1	58.7 µM (inactive)	> 100 µM (inactive)	92.3 µM (inactive)	41.3 µM (inactive)	42.3 µM (inactive)	44.4 µM (inactive)		
CN(C)CCS/C(=N\c1ccccc1)n1cccc1	83.9 µM (inactive)	22.2 µM (inactive)	> 100 µM (inactive)	62.5 µM (inactive)	> 100 µM (inactive)	42.7 µM (inactive)		GI50 (XF498): > 100 µM (inactive)
CCCNCC(O)CNc1ccc(NCC(O)CNCCC)c2c1C(=O)c1ccccc1C2=O (centres undefined)							2.14 µM (inactive)	
Nc1ncnc2c1ncn2[C@@H]1C[C@H](NO)[C@@H](O)[C@H]1O							> 100 µM (inactive)	
COP(=O)(OC)[C@@](O)(c1ccccc1)[C@@H](O)[C@H](O)c1ccccc1							> 100 µM (inactive)	
CC(=O)OC(C)C1C2=C(C(=O)CC1(C)O)C(=O)c1c(ccc(-c3ccc4c(c3O)C(=O)C3=C(C4=O)C(C(C)OC(C)=O)C(C)(O)CC3=O)c1O)C2=O (centres undefined)	1.36 µM (inactive)	3.18 µM (inactive)	0.457 µM (active)	1.52 µM (inactive)	1.11 µM (active)	0.428 µM (active)	1.28 µM (inactive)	
CCN1c2ccccc2C(C(SC)S(=O)(=O)c2ccc(C)cc2)c2c1[nH]c(=O)n(C)c2=O (centres undefined)	> 100 µM (inactive)	> 100 µM (inactive)	22.9 µM (inactive)	> 100 µM (inactive)	> 100 µM (inactive)	> 100 µM (inactive)		GI50 (XF498): > 100 µM (inactive)
Cn1c2ccccc2c2ccc3c(c21)C(=O)c1ccc2c4ccccc4n(C)c2c1C3=O							> 100 µM (inactive)	
CCN1C(=O)c2ccccc2C1(O)c1ccc(Cl)cc1 (centres undefined)							> 100 µM (inactive)	
O=C(O)Cc1cccnc1							> 100 µM (inactive)	
C=C1C(OC(=O)/C=C/c2ccccc2)CC(OC(C)=O)C2(C)C1CC1CC(OC(C)=O)C(C)=C(C(OC(C)=O)C2OC(C)=O)C1(C)C (centres undefined)	> 100 µM (inactive)	> 100 µM (inactive)	> 100 µM (inactive)	4.2 µM (inactive)		8.36 µM (inactive)		GI50 (RXF 631): > 100 µM (inactive)
O=C(CC(=O)C(=O)Nc1ccccc1)CC(c1ccccc1)c1c(O)c2ccccc2oc1=O (centres undefined)	> 100 µM (inactive)		> 100 µM (inactive)	> 100 µM (inactive)	> 100 µM (inactive)			GI50 (RXF 631): > 100 µM (inactive)
O=c1c2ccccc2nc(-c2ccccc2)n1O							> 100 µM (inactive)	
CSc1nc(C#N)c(/N=C\N(C)C)n1C							> 100 µM (inactive)	
CC1(C)CC2C=C(C=O)C3(C=O)CC3(C)C2C1 (centres undefined)							1.81 µM (inactive)	
Cc1nc2ccc(C(F)(F)F)cc2nc1NCc1ccc(Cl)c(Cl)c1							20.2 µM (inactive)	
S=C(c1c[nH]c2ccccc12)N1CCN(c2ccccc2)CC1							> 100 µM (inactive)	
N=C(N)N/N=C/c1c(-c2cc([N+](=O)[O-])c(Cl)cc2Cl)nc2sccn12							1.4 µM (inactive) and 1.46 µM (inactive)	
CCOC(=O)c1sc(N/N=C2\NC(=O)/C(=C/c3ccc([N+](=O)[O-])cc3)S2)nc1C							24 µM (inactive)	
CC(NC(=N)N)C(=O)O (centres undefined)							> 100 µM (inactive)	
CC(=O)NC(CO)C(=O)NC(Cc1ccc(O)cc1)C(=O)NCC(N)=O (stereo not drawn) (Ac-Ser-Tyr-Gly-NH2; configuration not given here)							> 100 µM (inactive)	
